Literature values as cited in patent US6316468A, “Phenylindole derivatives as 5-HT2A receptor antagonists” (Merck Sharp & Dohme Ltd., priority 1997, dated 2001).

Legend:
[1] = tested on: apomorphine-induced stereotyped behaviour; settings: animal models, preclinical studies
[2] = tested on: human dopamine D2 receptor
[3] = schizophrenic patients, multicentre, placebo-controlled study

SMILES: COc1cccc(C(O)C2CCN(CCc3ccc(F)cc3)CC2)c1OC (single isomer, unassigned) [MDL-100,907, (+)-α-(2,3-dimethoxyphenyl)-1-[2-(4-fluorophenyl)-ethyl]-4-piperidinemethanol]
- block of apomorphine-induced stereotyped behaviour [1]: failed to block apomorphine-induced stereotyped behaviour
- activity at the human dopamine D2 receptor [2]: essentially devoid of activity
- antagonism of human 5-HT2A receptors (human 5-HT2A receptors): potent antagonist
- efficacy for antipsychotic potential [3]: demonstrated efficacy
